# Data: US20260022142A1, “MACROCYCLIC IMMUNOMODULATORS” (Bristol-Myers Squibb Company, priority 2022, published 2026)
# Bridge positions count the residues as written; N and C are the ends. Square brackets hold non-standard residues; d marks the D form. Peptide text beside a SMILES is read from it. * marks the point of attachment. Phe(3-CF3) = N[C@@H](Cc1cccc(C(F)(F)F)c1)C(=O)O; Ala(morpholin-4-yl) = N[C@@H](CN1CCOCC1)C(=O)O; Phe(4-COOH) = N[C@@H](Cc1ccc(C(=O)O)cc1)C(=O)O; Bip = N[C@@H](Cc1ccc(-c2ccccc2)cc1)C(=O)O; NH(CH2)14COOH = O=C(O)CCCCCCCCCCCCCCN*; Phe(3-Me) = Cc1cccc(C[C@H](N)C(=O)O)c1; NH(CH2)12COOH = O=C(O)CCCCCCCCCCCCN*; Val(3-OH) = CC(C)(O)[C@H](N)C(=O)O; Cha = N[C@@H](CC1CCCCC1)C(=O)O; dDab = NCC[C@@H](N)C(=O)O; Carboxymethyl = O=C(O)C*; Nle = CCCC[C@H](N)C(=O)O; Orn = NCCC[C@H](N)C(=O)O; Dab = NCC[C@H](N)C(=O)O; AEEA = NCCOCCOCC(=O)O
# Molecular target: T1, PD-1/PD-L1 interaction (PE-labeled human PD-L1-Ig binding to Jurkat cell line over-expressing human PD-1) (Homo sapiens, UniProt Q15116)
# T1 construct: expressed in transfected cells; host or cells: Jurkat
# Test: Jurkat-PD-1 Cell Binding High-Content Screening Assay (CBA)
# Type: cell-based
# Conditions: Jurkat cell line over-expressing human PD-1; PE-labeled PD-L1-Ig 20 nM final; read-out: Jurkat hPD1-PDL1 IC50
# Summary of the method: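 Binding of fluorescent PD-L1-Ig (phycoerythrin on Ig tag, 20 nM final, 1 h) measured by high-content imaging of fixed, Hoechst-counterstained Jurkat-hPD-1 cells. Compound added 2 h at 37° C beforehand, in DMEM with 10% fetal calf serum.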
# T1 sequence (Q15116 25-288): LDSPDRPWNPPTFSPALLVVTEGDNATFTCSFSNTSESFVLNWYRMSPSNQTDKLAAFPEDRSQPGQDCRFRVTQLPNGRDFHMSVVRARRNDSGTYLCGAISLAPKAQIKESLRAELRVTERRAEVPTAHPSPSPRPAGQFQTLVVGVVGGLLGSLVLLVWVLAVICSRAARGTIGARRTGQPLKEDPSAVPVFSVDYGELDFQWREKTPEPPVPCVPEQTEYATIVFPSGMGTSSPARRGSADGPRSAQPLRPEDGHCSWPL
row,Compound,IC50
1,CC(C)C[C@H]1NC(=O)[C@H](CCCN)NC(=O)[C@H](Cc2ccc(OCC(=O)O)cc2)NC(=O)[C@H](Cc2ccc(-c3ccccc3)cc2)NC(=O)[C@H](Cc2ccc(OCC(=O)O)cc2)NC(=O)[C@H](Cc2cccc(C(F)(F)F)c2)NC(=O)[C@H](CC(=O)O)NC(=O)[C@H](Cc2ccc(OCC(=O)O)cc2)NC(=O)[C@H](CC2CCCCC2)NC(=O)CSC[C@@H](C(=O)N[C@H](CCN)C(=O)NCCOCCOCC(=O)NCCCCCCCCCCCCC(=O)O)NC(=O)[C@H](CC(=O)O)NC(=O)[C@H](C(C)C)NC(=O)[C@H](CC2CCCCC2)NC(=O)[C@H](CCN)NC1=O [Compound 3826] ({CH2CO}-[Cha]Y(Carboxymethyl)D[Phe(3-CF3)]Y(Carboxymethyl)[Bip]Y(Carboxymethyl)[Orn][dL][Dab][Cha]VDC[dDab][AEEA]-{NH(CH2)12COOH}; thioether N-14),72.5 nM
2,CCCC[C@@H]1NC(=O)CSC[C@@H](C(=O)N[C@H](CCN)C(=O)NCCOCCOCC(=O)NCCOCCOCC(=O)NCCCCCCCCCCCCC(=O)O)NC(=O)[C@H](CO)NC(=O)[C@H](C(C)(C)O)NC(=O)[C@H](CC2CCCCC2)NC(=O)[C@H](CCN)NC(=O)[C@@H](CC(C)C)NC(=O)[C@H](CCCN)NC(=O)[C@H](Cc2ccc(C(=O)O)cc2)NC(=O)[C@H](Cc2ccc(-c3ccccc3)cc2)NC(=O)[C@H](Cc2ccc(C(=O)O)cc2)NC(=O)[C@H](Cc2cccc(C(F)(F)F)c2)NC(=O)[C@H](CC(=O)O)NC(=O)[C@H](Cc2ccc(OCC(=O)O)cc2)NC1=O [Compound 3827] ({CH2CO}-[Nle]Y(Carboxymethyl)D[Phe(3-CF3)][Phe(4-COOH)][Bip][Phe(4-COOH)][Orn][dL][Dab][Cha][Val(3-OH)]SC[dDab][AEEA][AEEA]-{NH(CH2)12COOH}; thioether N-14),141 nM
3,CC(C)C[C@H]1NC(=O)[C@H](CCCN)NC(=O)[C@H](Cc2ccc(C(=O)O)cc2)NC(=O)[C@H](Cc2ccc(-c3ccccc3)cc2)NC(=O)[C@H](Cc2ccc(C(=O)O)cc2)NC(=O)[C@H](Cc2cccc(C(F)(F)F)c2)NC(=O)[C@H](CC(=O)O)NC(=O)[C@H](Cc2ccc(OCC(=O)O)cc2)NC(=O)[C@H](CN2CCOCC2)NC(=O)CSC[C@@H](C(=O)N[C@H](CCN)C(=O)NCCOCCOCC(=O)NCCOCCOCC(=O)NCCCCCCCCCCCCC(=O)O)NC(=O)[C@H](CO)NC(=O)[C@H](C(C)(C)O)NC(=O)[C@H](CC2CCCCC2)NC(=O)[C@H](CCN)NC1=O [Compound 3828] ({CH2CO}-[Ala(morpholin-4-yl)]Y(Carboxymethyl)D[Phe(3-CF3)][Phe(4-COOH)][Bip][Phe(4-COOH)][Orn][dL][Dab][Cha][Val(3-OH)]SC[dDab][AEEA][AEEA]-{NH(CH2)12COOH}; thioether N-14),216 nM
4,CCCC[C@@H]1NC(=O)CSC[C@@H](C(=O)N[C@@H](CCN)C(=O)NCCOCCOCC(=O)NCCOCCOCC(=O)NCCCCCCCCCCCCC(=O)O)NC(=O)[C@H](CO)NC(=O)[C@H](C(C)(C)O)NC(=O)[C@H](CC2CCCCC2)NC(=O)[C@H](CCN)NC(=O)[C@@H](CC(C)C)NC(=O)[C@H](CCCN)NC(=O)[C@H](Cc2ccc(OCC(=O)O)cc2)NC(=O)[C@H](Cc2ccc(-c3ccccc3)cc2)NC(=O)[C@H](Cc2ccc(OCC(=O)O)cc2)NC(=O)[C@H](Cc2cccc(C(F)(F)F)c2)NC(=O)[C@H](CC(=O)O)NC(=O)[C@H](Cc2ccc(OCC(=O)O)cc2)NC1=O [Compound 3829] ({CH2CO}-[Nle]Y(Carboxymethyl)D[Phe(3-CF3)]Y(Carboxymethyl)[Bip]Y(Carboxymethyl)[Orn][dL][Dab][Cha][Val(3-OH)]SC[Dab][AEEA][AEEA]-{NH(CH2)12COOH}; thioether N-14),19.2 nM
5,CC(C)C[C@H]1NC(=O)[C@H](CCCN)NC(=O)[C@H](Cc2ccc(C(=O)O)cc2)NC(=O)[C@H](Cc2ccc(-c3ccccc3)cc2)NC(=O)[C@H](Cc2ccc(C(=O)O)cc2)NC(=O)[C@H](Cc2cccc(C(F)(F)F)c2)NC(=O)[C@H](CC(=O)O)NC(=O)[C@H](Cc2ccc(OCC(=O)O)cc2)NC(=O)[C@H](CC2CCCCC2)NC(=O)CSC[C@@H](C(=O)N[C@@H](CCN)C(=O)NCCOCCOCC(=O)NCCOCCOCC(=O)NCCCCCCCCCCCCCCC(=O)O)NC(=O)[C@H](CO)NC(=O)[C@H](C(C)(C)O)NC(=O)[C@H](CC2CCCCC2)NC(=O)[C@H](CCN)NC1=O [Compound 3830] ({CH2CO}-[Cha]Y(Carboxymethyl)D[Phe(3-CF3)][Phe(4-COOH)][Bip][Phe(4-COOH)][Orn][dL][Dab][Cha][Val(3-OH)]SC[Dab][AEEA][AEEA]-{NH(CH2)14COOH}; thioether N-14),200 nM
6,CC(C)C[C@H]1NC(=O)[C@H](CCCN)NC(=O)[C@H](Cc2ccc(C(=O)O)cc2)NC(=O)[C@H](Cc2ccc(-c3ccccc3)cc2)NC(=O)[C@H](Cc2ccc(C(=O)O)cc2)NC(=O)[C@H](Cc2cccc(C(F)(F)F)c2)NC(=O)[C@H](CC(=O)O)NC(=O)[C@H](Cc2ccc(OCC(=O)O)cc2)NC(=O)[C@H](CC2CCCCC2)NC(=O)CSC[C@@H](C(=O)N[C@H](CCN)C(=O)NCCOCCOCC(=O)NCCOCCOCC(=O)NCCCCCCCCCCCCC(=O)O)NC(=O)[C@H](CO)NC(=O)[C@H](C(C)(C)O)NC(=O)[C@H](CC2CCCCC2)NC(=O)[C@H](CCN)NC1=O [Compound 3831] ({CH2CO}-[Cha]Y(Carboxymethyl)D[Phe(3-CF3)][Phe(4-COOH)][Bip][Phe(4-COOH)][Orn][dL][Dab][Cha][Val(3-OH)]SC[dDab][AEEA][AEEA]-{NH(CH2)12COOH}; thioether N-14),22.5 nM
7,CC(C)C[C@@H]1NC(=O)CSC[C@@H](C(=O)N[C@@H](CCN)C(=O)NCCCCCCCCCCCCC(=O)O)NC(=O)[C@H](CO)NC(=O)[C@H](C(C)(C)O)NC(=O)[C@H](CC2CCCCC2)NC(=O)[C@H](CCN)NC(=O)[C@@H](CC(C)C)NC(=O)[C@H](CCCN)NC(=O)[C@H](Cc2ccc(OCC(=O)O)cc2)NC(=O)[C@H](Cc2ccc(-c3ccccc3)cc2)NC(=O)[C@H](Cc2ccc(OCC(=O)O)cc2)NC(=O)[C@H](Cc2cccc(C(F)(F)F)c2)NC(=O)[C@H](CC(=O)O)NC(=O)[C@H](Cc2ccc(OCC(=O)O)cc2)NC1=O [Compound 3835] ({CH2CO}-LY(Carboxymethyl)D[Phe(3-CF3)]Y(Carboxymethyl)[Bip]Y(Carboxymethyl)[Orn][dL][Dab][Cha][Val(3-OH)]SC[Dab]-{NH(CH2)12COOH}; thioether N-14),28.3 nM
8,CC(C)C[C@H]1NC(=O)[C@H](CCCN)NC(=O)[C@H](Cc2ccc(OCC(=O)O)cc2)NC(=O)[C@H](Cc2ccc(-c3ccccc3)cc2)NC(=O)[C@H](Cc2ccc(OCC(=O)O)cc2)NC(=O)[C@H](Cc2cccc(C(F)(F)F)c2)NC(=O)[C@H](CC(=O)O)NC(=O)[C@H](Cc2ccc(OCC(=O)O)cc2)NC(=O)[C@H](Cc2cnc[nH]2)NC(=O)CSC[C@@H](C(=O)N[C@@H](CCN)C(=O)NCCCCCCCCCCCCC(=O)O)NC(=O)[C@H](CO)NC(=O)[C@H](C(C)(C)O)NC(=O)[C@H](CC2CCCCC2)NC(=O)[C@H](CCN)NC1=O [Compound 3836] ({CH2CO}-HY(Carboxymethyl)D[Phe(3-CF3)]Y(Carboxymethyl)[Bip]Y(Carboxymethyl)[Orn][dL][Dab][Cha][Val(3-OH)]SC[Dab]-{NH(CH2)12COOH}; thioether N-14),45.6 nM
9,CC(C)C[C@H]1NC(=O)[C@H](CCCN)NC(=O)[C@H](Cc2ccc(C(=O)O)cc2)NC(=O)[C@H](Cc2ccc(-c3ccccc3)cc2)NC(=O)[C@H](Cc2ccc(C(=O)O)cc2)NC(=O)[C@H](Cc2cccc(C(F)(F)F)c2)NC(=O)[C@H](CC(=O)O)NC(=O)[C@H](Cc2ccc(OCC(=O)O)cc2)NC(=O)[C@H](Cc2ccc(OCC(=O)O)cc2)NC(=O)CSC[C@@H](C(=O)N[C@@H](CCN)C(=O)NCCOCCOCC(=O)NCCOCCOCC(=O)NCCCCCCCCCCCCCCC(=O)O)NC(=O)[C@H](CO)NC(=O)[C@H](C(C)(C)O)NC(=O)[C@H](CC2CCCCC2)NC(=O)[C@H](CCN)NC1=O [Compound 3839] ({CH2CO}-Y(Carboxymethyl)Y(Carboxymethyl)D[Phe(3-CF3)][Phe(4-COOH)][Bip][Phe(4-COOH)][Orn][dL][Dab][Cha][Val(3-OH)]SC[Dab][AEEA][AEEA]-{NH(CH2)14COOH}; thioether N-14),178 nM
10,CC(C)C[C@H]1NC(=O)[C@H](Cc2cnc[nH]2)NC(=O)[C@H](Cc2ccc(C(=O)O)cc2)NC(=O)[C@H](Cc2ccc(-c3ccccc3)cc2)NC(=O)[C@H](Cc2ccc(C(=O)O)cc2)NC(=O)[C@H](Cc2cccc(C(F)(F)F)c2)NC(=O)[C@H](CC(=O)O)NC(=O)[C@H](Cc2ccc(OCC(=O)O)cc2)NC(=O)[C@H](Cc2ccc(OCC(=O)O)cc2)NC(=O)CSC[C@@H](C(=O)N[C@@H](CCN)C(=O)NCCOCCOCC(=O)NCCOCCOCC(=O)NCCCCCCCCCCCCCCC(=O)O)NC(=O)[C@H](CO)NC(=O)[C@H](C(C)(C)O)NC(=O)[C@H](CC2CCCCC2)NC(=O)[C@H](CCN)NC1=O [Compound 3840] ({CH2CO}-Y(Carboxymethyl)Y(Carboxymethyl)D[Phe(3-CF3)][Phe(4-COOH)][Bip][Phe(4-COOH)]H[dL][Dab][Cha][Val(3-OH)]SC[Dab][AEEA][AEEA]-{NH(CH2)14COOH}; thioether N-14),340 nM
11,CCCC[C@@H]1NC(=O)CSC[C@@H](C(=O)N[C@@H](CCN)C(=O)NCCOCCOCC(=O)NCCCCCCCCCCCCC(=O)O)NC(=O)[C@H](CO)NC(=O)[C@H](C(C)(C)O)NC(=O)[C@H](CC2CCCCC2)NC(=O)[C@H](CCN)NC(=O)[C@@H](CC(C)C)NC(=O)[C@H](CCCN)NC(=O)[C@H](Cc2ccc(C(=O)O)cc2)NC(=O)[C@H](Cc2ccc(-c3ccccc3)cc2)NC(=O)[C@H](Cc2ccc(C(=O)O)cc2)NC(=O)[C@H](Cc2cccc(C)c2)NC(=O)[C@H](CC(=O)O)NC(=O)[C@H](Cc2ccc(OCC(=O)O)cc2)NC1=O [Compound 3841] ({CH2CO}-[Nle]Y(Carboxymethyl)D[Phe(3-Me)][Phe(4-COOH)][Bip][Phe(4-COOH)][Orn][dL][Dab][Cha][Val(3-OH)]SC[Dab][AEEA]-{NH(CH2)12COOH}; thioether N-14),34.1 nM
